1 compound from publication PMC5218480 (PLoS ONE, 2017) can be followed below.

The assay has as its system MV-4-11 cells. Put plainly: Gene expression microarray analysis (Affymetrix PrimeView) and GSEA. It counts as cell-based, human. The arrangement: RFU PODN (11730768_x_at) / Fold change /veh PODN (11730768_x_at) / RFU LINC00158 (11744669_a_at) / Fold change /veh LINC00158 (11744669_a_at) / RFU DUSP10 (11751237_a_at) / Fold change /veh DUSP10 (11751237_a_at) / RFU ID3 (11757404_x_at) / Fold change /veh ID3 (11757404_x_at) / RFU PLEKHG5 (11737974_s_at) / Fold change /veh PLEKHG5 (11737974_s_at) / RFU LRRC4B (11730491_at) / Fold change /veh LRRC4B (11730491_at) / RFU GIMAP4 (11747438_a_at) / Fold change /veh GIMAP4 (11747438_a_at) / RFU KRT8 (11758183_x_at) / Fold change /veh KRT8 (11758183_x_at) / RFU CNN1 (11734310_a_at) / Fold change /veh CNN1 (11734310_a_at) / RFU VPS37D (11726825_at) / Fold change /veh VPS37D (11726825_at) / RFU C10orf10 (11716522_x_at) / Fold change /veh C10orf10 (11716522_x_at) / RFU KIR2DL2 /// KIR2DL4 /// KIR2DL5A /// KIR2DL5B /// KIR2DS1 /// KIR2DS2 /// KIR2DS3 /// KIR2DS4 /// KIR3DL3 /// KIR3DL3 /// KIR3DS1 (11738374_at) / Fold change /veh KIR2DL2 /// KIR2DL4 /// KIR2DL5A /// KIR2DL5B /// KIR2DS1 /// KIR2DS2 /// KIR2DS3 /// KIR2DS4 /// KIR3DL3 /// KIR3DL3 /// KIR3DS1 (11738374_at) / RFU C1QL1 (11718748_at) / Fold change /veh C1QL1 (11718748_at) / RFU TMPRSS4 (11747572_a_at) / Fold change /veh TMPRSS4 (11747572_a_at) / RFU HAMP (11756126_x_at) / Fold change /veh HAMP (11756126_x_at) / RFU RNFT2 (11725882_a_at) / Fold change /veh RNFT2 (11725882_a_at) / RFU NR4A2 (11747474_a_at) / Fold change /veh NR4A2 (11747474_a_at) / RFU ABCC12 (11746883_a_at) / Fold change /veh ABCC12 (11746883_a_at) / RFU TMEM136 (11760407_x_at) / Fold change /veh TMEM136 (11760407_x_at) / RFU CLDN22 /// WWC2 (11732394_at) / Fold change /veh CLDN22 /// WWC2 (11732394_at) / RFU HLA-DPB1 (11760878_x_at) / Fold change /veh HLA-DPB1 (11760878_x_at) / RFU SPINT1 (11716480_a_at) / Fold change /veh SPINT1 (11716480_a_at) / RFU GAP43 (11754022_s_at) / Fold change /veh GAP43 (11754022_s_at) / RFU A4GNT (11735810_at) / Fold change /veh A4GNT (11735810_at) / RFU PRB3 (11715151_x_at) / Fold change /veh PRB3 (11715151_x_at) / RFU TUBB4B (11761932_at) / Fold change /veh TUBB4B (11761932_at) / RFU CAPN14 (11732068_a_at) / Fold change /veh CAPN14 (11732068_a_at) / RFU TMCC2 (11721928_a_at) / Fold change /veh TMCC2 (11721928_a_at) / RFU IRGQ (11745062_a_at) / Fold change /veh IRGQ (11745062_a_at) / RFU FAM174B (11720279_a_at) / Fold change /veh FAM174B (11720279_a_at) / RFU TMPRSS4 (11748680_a_at) / Fold change /veh TMPRSS4 (11748680_a_at) / RFU FAM212B (11763350_a_at) / Fold change /veh FAM212B (11763350_a_at) / RFU PLEKHG5 (11743358_a_at) / Fold change /veh PLEKHG5 (11743358_a_at) / RFU ZSCAN30 (11745921_a_at) / Fold change /veh ZSCAN30 (11745921_a_at) / RFU CMKLR1 (11741424_a_at) / Fold change /veh CMKLR1 (11741424_a_at) / RFU LOC101060620 /// MAPK8IP1 (11723275_at) / Fold change /veh LOC101060620 /// MAPK8IP1 (11723275_at) / RFU SPTSSB (11747773_x_at) / Fold change /veh SPTSSB (11747773_x_at) / RFU PRSS12 (11739890_at) / Fold change /veh PRSS12 (11739890_at) / RFU BIN1 (11741810_x_at) / Fold change /veh BIN1 (11741810_x_at) / RFU WNT11 (11732464_a_at) / Fold change /veh WNT11 (11732464_a_at) / RFU C10orf10 (11716521_a_at) / Fold change /veh C10orf10 (11716521_a_at) / RFU C5orf56 (11738089_at) / Fold change /veh C5orf56 (11738089_at) / RFU CYB561 (11721691_x_at) / Fold change /veh CYB561 (11721691_x_at) / RFU ANKRD19P (11752326_a_at) / Fold change /veh ANKRD19P (11752326_a_at) / RFU OR2T12 /// OR2T33 /// OR2T8 (11738714_s_at) / Fold change /veh OR2T12 /// OR2T33 /// OR2T8 (11738714_s_at) / RFU VCAN (11748164_a_at) / Fold change /veh VCAN (11748164_a_at) / RFU JSRP1 (11732532_at) / Fold change /veh JSRP1 (11732532_at) / RFU KRTAP10-11 (11738290_x_at) / Fold change /veh KRTAP10-11 (11738290_x_at) / RFU MYO3A (11730013_a_at) / Fold change /veh MYO3A (11730013_a_at) / RFU EBF3 (11725865_a_at) / Fold change /veh EBF3 (11725865_a_at) / RFU CAMK2N1 (11719241_x_at) / Fold change /veh CAMK2N1 (11719241_x_at) / RFU C5orf56 (11738088_a_at) / Fold change /veh C5orf56 (11738088_a_at) / RFU OLFML3 (11715873_a_at) / Fold change /veh OLFML3 (11715873_a_at) / RFU LOC100653217 /// NTM (11731650_a_at) / Fold change /veh LOC100653217 /// NTM (11731650_a_at) / RFU MAPK11 (11762145_a_at) / Fold change /veh MAPK11 (11762145_a_at) / RFU FIZ1 (11724087_x_at) / Fold change /veh FIZ1 (11724087_x_at) / RFU OASL (11726364_x_at) / Fold change /veh OASL (11726364_x_at) / RFU SOX15 (11748057_x_at) / Fold change /veh SOX15 (11748057_x_at) / RFU CD79A (11719716_a_at) / Fold change /veh CD79A (11719716_a_at) / RFU HIST1H1D (11736915_at) / Fold change /veh HIST1H1D (11736915_at) / RFU CASKIN2 (11723855_a_at) / Fold change /veh CASKIN2 (11723855_a_at) / RFU LOC730098 (11760151_x_at) / Fold change /veh LOC730098 (11760151_x_at) / RFU OR4N2 (11742367_at) / Fold change /veh OR4N2 (11742367_at) / RFU PRRT2 (11749266_a_at) / Fold change /veh PRRT2 (11749266_a_at) / RFU SNX32 (11753110_a_at) / Fold change /veh SNX32 (11753110_a_at) / RFU CDHR5 (11726645_a_at) / Fold change /veh CDHR5 (11726645_a_at) / RFU RCAN1 (11760418_a_at) / Fold change /veh RCAN1 (11760418_a_at) / RFU FAM167A (11723789_a_at) / Fold change /veh FAM167A (11723789_a_at) / RFU FAM26E (11764081_at) / Fold change /veh FAM26E (11764081_at) / RFU ISYNA1 (11749810_s_at) / Fold change /veh ISYNA1 (11749810_s_at) / RFU ACY1 (11761880_at) / Fold change /veh ACY1 (11761880_at) / RFU 11764098_at / Fold change /veh 11764098_at / RFU SAMD14 (11745864_x_at) / Fold change /veh SAMD14 (11745864_x_at) / RFU NPB (11741838_a_at) / Fold change /veh NPB (11741838_a_at) / RFU TMPRSS6 (11731388_a_at) / Fold change /veh TMPRSS6 (11731388_a_at) / RFU KRTAP10-2 (11738614_at) / Fold change /veh KRTAP10-2 (11738614_at) / RFU ARHGAP8 /// PRR5-ARHGAP8 (11727945_x_at) / Fold change /veh ARHGAP8 /// PRR5-ARHGAP8 (11727945_x_at) / RFU KRTAP5-7 /// NADSYN1 (11734609_at) / Fold change /veh KRTAP5-7 /// NADSYN1 (11734609_at) / RFU RASL12 (11751679_a_at) / Fold change /veh RASL12 (11751679_a_at) / RFU CDKN2B (11736163_a_at) / Fold change /veh CDKN2B (11736163_a_at) / RFU PRF1 (11729649_at) / Fold change /veh PRF1 (11729649_at) / RFU, ZNF638 /// ZNF638-IT1 / Fold change vs veh, ZNF638 /// ZNF638-IT1 / RFU, PANK3 / Fold change vs veh, PANK3 / RFU, SH3YL1 / Fold change vs veh, SH3YL1 / RFU, ZEB2 / Fold change vs veh, ZEB2 / RFU, NRIP1 / Fold change vs veh, NRIP1 / RFU, PTTG1IP / Fold change vs veh, PTTG1IP / RFU, CAPN2 / Fold change vs veh, CAPN2 / RFU, MED14 / Fold change vs veh, MED14 / RFU, SNORA58 / Fold change vs veh, SNORA58 / RFU, C1orf63 / Fold change vs veh, C1orf63 / RFU, LRRFIP1 / Fold change vs veh, LRRFIP1 / RFU, NDUFAF7 / Fold change vs veh, NDUFAF7 / RFU, SLC12A2 / Fold change vs veh, SLC12A2 / RFU, IBTK / Fold change vs veh, IBTK / RFU, ESF1 / Fold change vs veh, ESF1 / Fold change vs veh, TMEM50B / RFU, TAOK1 / Fold change vs veh, TAOK1 / RFU, ACBD3 / Fold change vs veh, ACBD3 / RFU, TMA16 / Fold change vs veh, TMA16 / RFU, RWDD3 / Fold change vs veh, RWDD3 / RFU, BCAT1 / Fold change vs veh, BCAT1 / RFU, EDEM3 / Fold change vs veh, EDEM3 / RFU, TMEM33 / Fold change vs veh, TMEM33 / RFU, WDR75 / Fold change vs veh, WDR75 / RFU, AHCTF1 / Fold change vs veh, AHCTF1 / RFU, TFRC / Fold change vs veh, TFRC / RFU, ZDHHC17 / Fold change vs veh, ZDHHC17 / RFU, NOM1 / Fold change vs veh, NOM1 / RFU, ARL8B / Fold change vs veh, ARL8B / RFU, ZBTB11 / Fold change vs veh, ZBTB11 / RFU, TAMM41 / Fold change vs veh, TAMM41 / RFU, KIAA1704 /// LOC100996395 / Fold change vs veh, KIAA1704 /// LOC100996395 / RFU, ING1 / Fold change vs veh, ING1 / RFU, TRMT61B / Fold change vs veh, TRMT61B / RFU, FUBP3 / Fold change vs veh, FUBP3 / RFU, TP53 / Fold change vs veh, TP53 / RFU, TNKS2 / Fold change vs veh, TNKS2 / RFU, ZFP14 / Fold change vs veh, ZFP14 / RFU, ACTR2 / Fold change vs veh, ACTR2 / RFU, PPP3R1 / Fold change vs veh, PPP3R1 / RFU, PIK3R1 / Fold change vs veh, PIK3R1 / RFU, HNRNPA1 / Fold change vs veh, HNRNPA1 / RFU, RNF170 / Fold change vs veh, RNF170 / RFU, ZNF28 / Fold change vs veh, ZNF28 / RFU, RNGTT / Fold change vs veh, RNGTT / RFU, OGT / Fold change vs veh, OGT / RFU, BRD1 / Fold change vs veh, BRD1 / RFU, MARS / Fold change vs veh, MARS / RFU, ZNF655 / Fold change vs veh, ZNF655 / RFU, FAHD1 / Fold change vs veh, FAHD1 / RFU, BDP1 / Fold change vs veh, BDP1 / RFU, LRRCC1 / Fold change vs veh, LRRCC1 / RFU, ARID1A / Fold change vs veh, ARID1A / RFU, ZNF146 / Fold change vs veh, ZNF146 / RFU, ZNF330 / Fold change vs veh, ZNF330 / RFU, GPN3 / Fold change vs veh, GPN3 / RFU, C9orf123 / Fold change vs veh, C9orf123 / RFU, N4BP2L2 / Fold change vs veh, N4BP2L2 / RFU, ARFIP1 / Fold change vs veh, ARFIP1 / RFU, FAM179B / Fold change vs veh, FAM179B / RFU, BCL10 / Fold change vs veh, BCL10 / RFU, UHRF1BP1L / Fold change vs veh, UHRF1BP1L / RFU, BET1 / Fold change vs veh, BET1 / RFU, CNOT2 / Fold change vs veh, CNOT2 / RFU, ZNF268 / Fold change vs veh, ZNF268 / Fold change vs veh, ZNF507 / RFU, DGCR2 / Fold change vs veh, DGCR2 / RFU, WDSUB1 / Fold change vs veh, WDSUB1 / Fold change vs veh, HSP90B1 /// MIR3652 / RFU, ADSS / Fold change vs veh, ADSS / RFU, GK / Fold change vs veh, GK / RFU, ZNF148 / Fold change vs veh, ZNF148 / RFU, TAF9 / Fold change vs veh, TAF9 / RFU, SLC1A5 / Fold change vs veh, SLC1A5 / RFU, SLMO2 / Fold change vs veh, SLMO2 / RFU, ABCC4 / Fold change vs veh, ABCC4 / RFU, LOC101060439 /// RAP1B / Fold change vs veh, LOC101060439 /// RAP1B / RFU, RFX7 / Fold change vs veh, RFX7 / RFU, GTPBP10 / Fold change vs veh, GTPBP10 / RFU, CNEP1R1 / Fold change vs veh, CNEP1R1 / RFU, BIVM-ERCC5 /// ERCC5 / Fold change vs veh, BIVM-ERCC5 /// ERCC5 / RFU, ILF3 / Fold change vs veh, ILF3 / RFU 11762660_at / Fold change /veh 11762660_at / RFU VCAN (11757783_s_at) / Fold change /veh VCAN (11757783_s_at) / RFU DDX43 (11728927_at) / Fold change /veh DDX43 (11728927_at) / RFU KRT8 (11758188_x_at) / Fold change /veh KRT8 (11758188_x_at) / RFU NKD1 (11759106_at) / Fold change /veh NKD1 (11759106_at) / RFU SRD5A1 (11742802_a_at) / Fold change /veh SRD5A1 (11742802_a_at) / RFU TPSAB1 /// TPSB2 (11721975_s_at) / Fold change /veh TPSAB1 /// TPSB2 (11721975_s_at) / RFU GSTM3 (11746129_a_at) / Fold change /veh GSTM3 (11746129_a_at) / RFU IL23R (11737362_x_at) / Fold change /veh IL23R (11737362_x_at) / RFU TMEM51 (11727254_a_at) / Fold change /veh TMEM51 (11727254_a_at) / RFU PIWIL2 (11732686_x_at) / Fold change /veh PIWIL2 (11732686_x_at) / RFU ORM1 (11744905_x_at) / Fold change /veh ORM1 (11744905_x_at) / RFU CCDC152 (11743942_at) / Fold change /veh CCDC152 (11743942_at) / RFU ECM1 (11717891_a_at) / Fold change /veh ECM1 (11717891_a_at) / RFU IL23R (11748794_a_at) / Fold change /veh IL23R (11748794_a_at) / RFU TNFAIP8L3 (11732012_x_at) / Fold change /veh TNFAIP8L3 (11732012_x_at) / RFU MBOAT4 (11741988_at) / Fold change /veh MBOAT4 (11741988_at) / RFU 11764193_at / Fold change /veh 11764193_at / RFU TMEM53 (11763286_at) / Fold change /veh TMEM53 (11763286_at) / RFU MAGEB2 (11727129_at) / Fold change /veh MAGEB2 (11727129_at) / RFU TMEM200A (11744735_a_at) / Fold change /veh TMEM200A (11744735_a_at) / RFU CCDC152 (11751479_a_at) / Fold change /veh CCDC152 (11751479_a_at) / RFU FAM211A (11726209_a_at) / Fold change /veh FAM211A (11726209_a_at) / RFU RGS16 (11746705_a_at) / Fold change /veh RGS16 (11746705_a_at) / RFU VCAN (11755009_s_at) / Fold change /veh VCAN (11755009_s_at) / RFU RHOB (11743442_s_at) / Fold change /veh RHOB (11743442_s_at) / RFU RGS16 (11720943_a_at) / Fold change /veh RGS16 (11720943_a_at) / RFU RGS16 (11720944_at) / Fold change /veh RGS16 (11720944_at) / RFU, VPS4B / Fold change vs veh, VPS4B / RFU, CREB1 / Fold change vs veh, CREB1 / RFU, DNAJC13 / Fold change vs veh, DNAJC13 / RFU, GNAQ / Fold change vs veh, GNAQ / RFU, CDK5R1 / Fold change vs veh, CDK5R1 / RFU, ZRANB3 / Fold change vs veh, ZRANB3 / RFU, CUL4A / Fold change vs veh, CUL4A / RFU, CCNY / Fold change vs veh, CCNY / RFU, UFL1 / Fold change vs veh, UFL1 / RFU, COG3 / Fold change vs veh, COG3 / RFU, DIAPH2 / Fold change vs veh, DIAPH2 / RFU, SKA2 / Fold change vs veh, SKA2 / RFU, AFF3 / Fold change vs veh, AFF3 / RFU, LMF1 / Fold change vs veh, LMF1 / RFU, IPO11 / Fold change vs veh, IPO11 / RFU, DFFB / Fold change vs veh, DFFB / RFU, FOXP1 / Fold change vs veh, FOXP1 / RFU, CARD8 / Fold change vs veh, CARD8 / RFU, STRN3 / Fold change vs veh, STRN3 / RFU, ADK / Fold change vs veh, ADK / RFU, RASSF2 / Fold change vs veh, RASSF2 / RFU, WIPF1 / Fold change vs veh, WIPF1 / RFU, LARP1B / Fold change vs veh, LARP1B / RFU, RASA1 / Fold change vs veh, RASA1 / RFU, RB1 / Fold change vs veh, RB1 / RFU, PPFIA1 / Fold change vs veh, PPFIA1 / RFU, MAT2A / Fold change vs veh, MAT2A / RFU, CCT5 / Fold change vs veh, CCT5 / RFU, WDR92 / Fold change vs veh, WDR92 / RFU, CUX1 / Fold change vs veh, CUX1 / RFU, TTC7A / Fold change vs veh, TTC7A / RFU, TMEM135 / Fold change vs veh, TMEM135 / RFU, DEPTOR / Fold change vs veh, DEPTOR / RFU, CPM / Fold change vs veh, CPM / RFU, DNAJB6 / Fold change vs veh, DNAJB6 / RFU, CACNA2D3 / Fold change vs veh, CACNA2D3 / RFU, DTX4 / Fold change vs veh, DTX4 / RFU, TFCP2 / Fold change vs veh, TFCP2 / RFU, GMCL1 /// GMCL1P1 / Fold change vs veh, GMCL1 /// GMCL1P1 / RFU, AEBP2 / Fold change vs veh, AEBP2 / RFU, SNHG1 /// SNORD22 /// SNORD25 /// SNORD26 /// SNORD27 /// SNORD28 /// SNORD29 /// SNORD31 / Fold change vs veh, SNHG1 /// SNORD22 /// SNORD25 /// SNORD26 /// SNORD27 /// SNORD28 /// SNORD29 /// SNORD31 / Fold change (Aza/veh), C12orf56 (ProbeSet 11735607_a_at) / Fold change (ACY-1035/veh), C12orf56 (ProbeSet 11735607_a_at) / Fold change (Aza/veh), FGFR1OP (ProbeSet 11751329_s_at) / Fold change (ACY-1035/veh), FGFR1OP (ProbeSet 11751329_s_at) / Fold change (Aza/veh), VPS36 (ProbeSet 11739960_a_at) / Fold change (ACY-1035/veh), VPS36 (ProbeSet 11739960_a_at) / RFU SYPL1 (11715823_x_at) / Fold change /veh SYPL1 (11715823_x_at) / RFU IGFBP7 (11715501_s_at) / Fold change /veh IGFBP7 (11715501_s_at) / RFU REEP3 (11722064_at) / Fold change /veh REEP3 (11722064_at) / RFU IGLL1 (11728026_x_at) / Fold change /veh IGLL1 (11728026_x_at): dose or concentration left out as unconfirmed. The conditions noted are these: MV-4-11 cells, 48 hours.

For the compound `Nc1ccc(-c2cccs2)cc1NC(=O)c1ccc2c(c1)cc(C1CC1)n2CCN1CCOCC1` [ACY-1035], the “Fold change /veh CMKLR1 (11741424_a_at)” value was 1.11.
